{
  "source": "patent US20190183950A1",
  "about": "“COMMENSAL FUNGI AND COMPONENTS THEREOF FOR USE IN MODULATING IMMUNE RESPONSES” (priority 2017, published 2019)",
  "key": {"influenza A virus": {"tested_on": "influenza A virus", "type": "in vivo, mouse"}, "C. albicans [1]": {"tested_on": "C. albicans", "test": "Depletion of intestinal C. albicans with fluconazole in antibiotic cocktail treated mice", "type": "in vivo, mouse", "details": "C. albicans mono-colonized mice, 10 days after adding fluconazole to antibiotic-supplemented drinking water"}, "[2]": {"tested_on": "Th17 CD4+ T cells and circulating neutrophils", "test": "Systemic immune cell analysis (tetramer staining, cytokine production, IL-17RC, reactive oxygen) in colonized mice", "details": "fluconazole treated colonized mice", "excerpt": "Fluorophore- or biotin-conjugated antibodies used mouse cell analysis are as follows: anti-CD4 (GK1.5, eBioscience), anti-CD8a (53-6.7, eBioscience), anti-CD11b (M1/70, Biolegend), anti-CD11c (N418, Biolegend), anti-F4/80 (BM8, eBioscience), anti-B220 (RA3-6B2, Biolegend), anti-CD44 (IM7, Biolegend), anti-CD45 (30F11, invitrogen), anti-Ly6G (1A8, BD bioscience), anti-Ly6C (HK1.4, Biolegend), anti-Gr1 (RB6-8C5, eBioscience), anti-IL-17RC (polyclonal IgG, R&D Systems), anti-FOXP3 (FJK-16S, eBioscience), anti-RORγt (Q31-378, BD bioscience), anti-T-bet (4B10, Biolegend), anti-IFN-γ (XMG1.2, eBioscience), anti-IL17A (TC 11-18H10.1, Biolegend), anti-IL17F (9D3.1C8, Biolegend). Fluorophore-conjugated antibodies were used for human cell analysis are as follows: anti-CD4 (OKT4, eBioscience), anti-CD15 (H198, invitrogen), anti-CD16 (3G8, Biolegend), anti-IL-17A (eBio64DEC17, eBioscience), anti-IL17F (O33-782, BD Bioscience), anti-IL17RC (309822, R&D Systems) with staining in the presence of Human Fc block (BD Bioscience). […] Single cell suspensions from spleen and peripheral lymph nodes were stained with APC conjugated I-Ab:2W1S55-68 tetramer at room temperature for 60 minutes, and enriched using anti-APC antibody conjugated magnetic beads (Militenyi Biotec) as described (Moon et al., Immunity 27:203-213 (2007)). Samples were acquired using an FACSCanto (BD) cytometer and analyzed using FlowJo software (Tree Star)."}, "C. albicans [3]": {"tested_on": "C. albicans", "details": "mouse, in vivo"}, "[4]": {"tested_on": "allergic airway inflammation", "test": "House dust mite airway reactivity and inflammation", "type": "in vivo, mouse", "details": "colonized mice, colonization eradicated with fluconazole", "description": "Mice were anesthetized with ketamine/xylazine and hung by their front incisors on an angled stand. 100 μg house dust mite extract (Greer Laboratories) in 40 μL sterile saline was administered intratracheally. 10 days later, mice were challenged with the same amount of house dust mite extract. 48 hours after the second intratracheal challenge, airway resistance in response to inhaled methacholine (100 mg/mL) was measured using FlexiVent (SCIREQ). Saline perfused lungs were minced and digested with collagenase D (1 mg/mL) and DNAse (0.1 mg/mL) in DMEM media supplemented with 10% fetal bovine serum, 1% L-glutamine, 10 mM HEPES, 1% penicillin-streptomycin (Cellgro) for 30 minutes at 37° C. with gentle shaking (200 rpm). The tissue digest was then passed through a 70 μm filter to obtain single cell suspensions."}, "[5]": {"tested_on": "DSS induced intestinal injury", "test": "DSS induced intestinal injury (survival, colon length, permeability, histology)", "type": "in vivo, mouse", "details": "for susceptibility to DSS (mortality): antibiotic treated mice, intrarectal administration every other day from one day prior to DSS"}, "C. albicans [6]": {"tested_on": "C. albicans", "details": "mouse, in vivo", "remark": "listed apart in the source"}, "NF-κB": {"tested_on": "NF-κB", "test": "RAW-Blue stimulation and quantification of NF-κB activity", "type": "cell-based, murine", "details": "500 μg/mL", "description": "RAW-Blue cells (InvivoGen) cells are derived from the murine RAW 264.7 macrophages with chromosomal integration of a secreted embryonic alkaline phosphatase reporter construct induced by NF-κB. 5×10^4 RAW-Blue cells were seeded 24 hours prior to addition of the indicated blocking antibody. One hour thereafter, mannan (Sigma) was added at a final concentration of 500 μg/mL. Supernatants were collected after 24 hours to quantify NF-κB activity by colorimetric assay using QUANTI-Blue reagent (InvivoGen)."}, "[7]": {"details": "antibiotic treated mice, intrarectal administration"}},
  "data": [
    {"molecule": "OC(Cn1cncn1)(Cn1cncn1)c1ccc(F)cc1F", "note": "[fluconazole]", "values": [
      {"measurement": "protection against influenza A", "setting": "influenza A virus; mouse, in vivo", "value": "similarly overturned"},
      {"measurement": "recoverable fungi in the feces", "setting": "C. albicans [1]", "value": "rapidly declined to undetectable levels"},
      {"measurement": "IL-17RC expression by circulating leukocyte and neutrophils", "setting": "[2]", "value": "similarly overturned"},
      {"measurement": "RORγt expression by I-Ab:2W1S specific CD4+ T cells", "setting": "[2]", "value": "reduced to background levels"},
      {"measurement": "expansion of circulating neutrophils", "setting": "[2]", "value": "similarly overturned"},
      {"measurement": "neutrophil production of reactive oxygen species", "setting": "[2]", "value": "similarly overturned"},
      {"measurement": "number of CD4+ T cells with commensal C. albicans I-Ab:2W1S specificity", "setting": "[2]", "value": "reduced to background levels"},
      {"measurement": "IL-17A and IL-17F production by spleen and lymph node CD4+ T cells", "setting": "[2]; heat-killed C. albicans stimulation", "value": "similarly overturned"},
      {"measurement": "fungal pathogen burden in the kidney after intravenous infection", "setting": "C. albicans [3]", "value": "significantly increased fungal pathogen burden in the kidney"},
      {"measurement": "accumulation of RORγt+ and IL-17 producing CD4+ T cells in the lungs", "setting": "[4]", "value": "efficiently overturned"},
      {"measurement": "airway responsiveness", "setting": "[4]", "value": "efficiently overturned"},
      {"measurement": "survival and time-to-death after DSS challenge", "setting": "[5]; mouse, in vivo", "value": "efficiently abolished the improved survival and delayed time-to-death"},
      {"measurement": "C. albicans intestinal colonization", "setting": "C. albicans [6]", "value": "efficiently eliminates C. albicans intestinal colonization"}
    ]},
    {"molecule": "curdlan", "values": [
      {"measurement": "susceptibility to DSS (mortality)", "setting": "[5]", "value": "failed to improve mortality"}
    ]},
    {"molecule": "mannan", "values": [
      {"measurement": "mannan stimulated cell activation", "setting": "NF-κB; with antibody blockade against TLR2", "value": "not significantly impacted"},
      {"measurement": "mannan stimulated cell activation", "setting": "NF-κB; with antibody blockade against dectin-2", "value": "not significantly impacted"},
      {"measurement": "mannan stimulated cell activation", "setting": "NF-κB; with antibody blockade against the mannose receptor", "value": "not significantly impacted"},
      {"measurement": "mannan induced NF-κB", "setting": "NF-κB; with neutralization of TLR4", "value": "significantly reduced"},
      {"measurement": "mannan induced NF-κB", "setting": "NF-κB; with neutralization of dectin-1", "value": "significantly reduced"},
      {"measurement": "survival and accumulation of protective immune cells", "setting": "influenza A virus; [7]", "value": "restored to levels comparable to C. albicans colonized controls"},
      {"measurement": "susceptibility to influenza A virus infection", "setting": "influenza A virus; [7]", "value": "mitigated"},
      {"measurement": "susceptibility to DSS (mortality)", "setting": "[5]", "value": "mitigated"}
    ]}
  ]
}
